The record followed here is patent US8124764B2, “Fused heterocyclyc inhibitor compounds” (Gilead Sciences, Inc., priority 2008, dated 2012).

A word on the IC50: it is the midpoint of a concentration-inhibition curve.

The target in one experiment is HDAC 1 (Homo sapiens, UniProt Q13547). In words: HDAC 1 inhibition assay with about 3 hours enzyme/compound preincubation (fluorophore/quencher peptide substrate). It counts as biochemical. Particulars: 3-hour preincubation of enzyme with compound; read-out: HDAC 1 inhibitory activity (IC50 [μM]) (3-hour preincubation). As for the experimental part: HDAC inhibitory activity of the compound of Example 1 was measured by two types of assays in which HDAC 1 was used as a target molecule. The first assay was carried out without preincubation after addition of the enzyme. The test compound was suspended in and titrated in dmso. It was then spotted into a 384-well test plate. The enzyme, HDAC 1, was diluted in assay buffer containing 25 mM Tris-HCl (pH 8.0), 137 mM NaCl, 2.7 mM KCl, and 0.01% Tween-20 and added to the pre-spotted compound. The peptide substrate containing a fluorophore/quencher pair was diluted in the same assay buffer and added to the compound/enzyme mix initiating the reaction. The reaction incubated at room temperature for about 45 minutes. A concentrated developer solution was diluted in the assay buffer, and added to the reaction. The reaction was incubated at room temperature for about 15 minutes and relative fluorescence was read on an instrument reader.
HDAC 1, sequence (Q13547 whole entry, species assumed): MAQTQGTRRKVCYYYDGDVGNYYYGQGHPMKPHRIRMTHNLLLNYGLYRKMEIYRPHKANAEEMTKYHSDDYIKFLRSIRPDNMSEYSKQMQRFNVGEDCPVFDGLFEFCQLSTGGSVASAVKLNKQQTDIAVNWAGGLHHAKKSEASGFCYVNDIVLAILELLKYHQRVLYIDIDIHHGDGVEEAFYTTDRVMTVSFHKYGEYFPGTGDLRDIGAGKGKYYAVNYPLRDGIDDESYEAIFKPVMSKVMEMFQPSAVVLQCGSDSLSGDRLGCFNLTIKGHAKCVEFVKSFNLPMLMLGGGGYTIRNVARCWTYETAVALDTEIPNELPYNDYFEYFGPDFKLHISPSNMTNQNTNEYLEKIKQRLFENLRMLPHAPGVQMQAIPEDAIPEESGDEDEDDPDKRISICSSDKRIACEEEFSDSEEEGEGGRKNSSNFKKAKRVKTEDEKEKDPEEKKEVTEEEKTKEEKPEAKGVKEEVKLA
The second assay is similar to the first assay described above, except that preincubation is carried out for about 3 hours after the enzyme is introduced. The test compound was suspended in, and titrated in DMSO. It was then spotted into a 384-well test plate. The enzyme, HDAC 1, was diluted in the same assay buffer as used in the previous assay and added to the pre-spotted compound. The enzyme/compound mix was incubated at room temperature for about 3 hours. The peptide substrate containing a fluorophore/quencher pair was diluted in the assay buffer and added to the compound/enzyme mix initiating the reaction. The reaction incubated at room temperature for 45 minutes. A concentrated developer solution was diluted in the assay buffer, and added to the reaction. The reaction was incubated at room temperature for about 15 minutes and relative fluorescence was read on an instrument reader.

The target of a further experiment is CDK2 (Homo sapiens, UniProt P24941). In words: CDK2 inhibition. In kind it is biochemical.

Turning to `Cc1nc2ncccn2c1-c1ccnc(Nc2ccc(C(=O)NO)cc2)n1` [Example 21, N-Hydroxy-4-[4-(2-methyl-imidazo[1,2-a]pyrimidin-3-yl)-pyrimidin-2-ylamino]-benzamide], the figures for the 50% inhibitory concentration (IC50) on HDAC 1 and on CDK2 were 0.289 µM and 1.18 µM, respectively.
For the compound `COc1ccn2c(-c3ccnc(Nc4ccc(C(=O)NO)cc4)n3)c(C)nc2c1` [Example 13, N-Hydroxy-4-[4-(7-methoxy-2-methyl-imidazo[1,2-a]pyridin-3-yl)-pyrimidin-2-ylamino]-benzamide], the concentration for half-maximal inhibition (IC50) on HDAC 1 and at CDK2 was 0.04 µM throughout.
As for `Cc1nc2ccccn2c1-c1ccnc(Nc2ccc(C(=O)Nc3ccccc3N)c(F)c2)n1` [Example 36, N-(2-Amino-phenyl)-2-fluoro-4-[4-(2-methyl-imidazo[1,2-a]pyridin-3-yl)-pyrimidin-2-ylamino]-benzamide], the results for the IC50 on HDAC 1 and against CDK2 were > 10 µM and 0.11 µM, respectively.
The corresponding values for `O=C(NO)c1ccc(Nc2nccc(-c3cnc4ccccn34)n2)cc1` [Example 5, N-Hydroxy-4-(4-imidazo[1,2-a]pyridin-3-yl-pyrimidin-2-ylamino)-benzamide] are 0.02 µM and 0.0393 µM.
The corresponding values for `Nc1ccccc1NC(=O)c1ccc(Nc2ncc(F)c(-c3cnc4ccccn34)n2)cc1` [Example 50, N-(2-Amino-phenyl)-4-(5-fluoro-4-imidazo[1,2-a]pyridin-3-yl-pyrimidin-2-ylamino)-benzamide] are > 20 µM and 0.06 µM.
In the case of `O=C(NO)c1cccc(Nc2nccc(-c3cnc4ccccn34)n2)c1` [Example 7, N-Hydroxy-3-(4-imidazo[1,2-a]pyridin-3-yl-pyrimidin-2-ylamino)-benzamide], the IC50 turned out to be 0.017 µM on HDAC 1 and 0.069 µM against CDK2.
Turning to `Cc1nc2ccccn2c1-c1ccnc(Nc2ccc(C(=O)Nc3ccccc3N)cc2)n1` [Example 2, N-(2-Amino-phenyl)-4-(4-(2-methylimidazo[1,2-a]pyridin-3-yl)-pyrimidin-2-ylamino)-benzamide], the IC50 at HDAC 1 was 0.146 µM; at CDK2 it was 0.134 µM.
As for `Cc1nc2ccccn2c1-c1ccnc(Nc2ccc(C(=O)Nc3ccccc3N)cn2)c1` [Example 70, N-(2-aminophenyl)-6-(4-(2-methylimidazo[1,2-a]pyridin-3-yl)pyridin-2-ylamino)nicotinamide], the values for the IC50 at HDAC 1 and at CDK2 were 0.073 µM and 0.87 µM, respectively.
For `Cc1nc2ccccn2c1-c1ccnc(Nc2ccc(C(=O)NO)cc2)n1` [Example 1, N-Hydroxy-4-(4-(2-methylimidazo[1,2-a]pyridin-3-yl)-pyrimidin-2-ylamino)-benzamide] the same measures were 0.067 µM and 0.044 µM.
As for `Nc1ccccc1NC(=O)c1ccc(N(CC(F)(F)F)c2nccc(-c3cnc4ccccn34)n2)cc1` [Example 58, N-(2-Amino-phenyl)-4-[(4-imidazo[1,2-a]pyridin-3-yl-pyrimidin-2-yl)-(2,2,2-trifluoro-ethyl)-amino]-benzamide], the half-inhibitory concentration (IC50) at HDAC 1 is 5.58 µM; against CDK2, > 40 µM.
Turning to `COc1ccn2c(-c3ccnc(Nc4ccc(C(=O)Nc5ccccc5N)cc4)n3)c(C(F)(F)F)nc2c1` [Example 48, N-(2-Amino-phenyl)-4-[4-(7-methoxy-2-trifluoromethyl-imidazo[1,2-a]pyridin-3-yl)-pyrimidin-2-ylamino]-benzamide], the half-maximal inhibitory concentration (IC50) at HDAC 1 worked out at 0.06 µM; against CDK2, 0.14 µM.
The corresponding values for `Cc1nc2c(F)cccn2c1-c1ccnc(Nc2ccc(C(=O)Nc3ccccc3N)cc2)n1` [Example 45, N-(2-Amino-phenyl)-4-[4-(8-fluoro-2-methyl-imidazo[1,2-a]pyridin-3-yl)-pyrimidin-2-ylamino]-benzamide] are 0.178 µM and 0.35 µM.
The corresponding values for `Nc1ccccc1NC(=O)c1ccc(Nc2nccc(-c3cnc4ccccn34)n2)cc1` [Example 6, N-(2-Amino-phenyl)-4-(4-imidazo[1,2-a]pyridin-3-yl-pyrimidin-2-ylamino)-benzamide] are 0.197 µM and 0.084 µM.
For the compound `Cc1nc2ccc(C(=O)N3CCN(C)CC3)cn2c1-c1ccnc(Nc2ccc(C(=O)Nc3ccccc3N)cc2)n1` [Example 39, N-(2-Amino-phenyl)-4-{4-[2-methyl-6-(4-methyl-piperazine-1-carbonyl)-imidazo[1,2-a]pyridin-3-yl]-pyrimidin-2-ylamino}-benzamide], the half-inhibitory concentration (IC50) on HDAC 1 was 0.563 µM; at CDK2, 7.94 µM.
In the case of `Cc1nc2cccnn2c1-c1ccnc(Nc2ccc(C(=O)Nc3ccccc3N)cc2)n1` [Example 18, N-(2-Amino-phenyl)-4-[4-(2-methyl-imidazo[1,2-b]pyridazin-3-yl)-pyrimidin-2-ylamino]-benzamide], the IC50 at HDAC 1 worked out at 0.0239 µM; against CDK2, 0.59 µM.
Turning to `Cc1nc2ccc(C(=O)NCCN(C)C)cn2c1-c1ccnc(Nc2ccc(C(=O)Nc3ccccc3N)cc2)n1` [Example 37, 3-(2-(4-(2-aminophenylcarbamoyl)phenylamino)pyrimidin-4-yl)-N-(2-(dimethylamino)ethyl)-2-methylimidazo[1,2-a]pyridine-6-carboxamide], the figures for the concentration for half-maximal inhibition (IC50) on HDAC 1 and against CDK2 were 0.132 µM and 1.88 µM, respectively.
For “N-hydroxy-2-(4-(2-methylimidazo[1,2-a]pyridin-3-yl)pyrimidin-2-ylamino)oxazole-5-carboxamide [Example 72]” the same measures were 0.4 µM and > 40 µM.
Consider `Cc1nc2ccccn2c1-c1ccnc(Nc2ccc(C(=O)NO)cn2)c1` [Example 69, N-hydroxy-6-(4-(2-methylimidazo[1,2-a]pyridin-3-yl)pyridin-2-ylamino)nicotinamide], for which the 50% inhibitory concentration (IC50) on HDAC 1 amounted to 0.141 µM; at CDK2, 0.15 µM.
For the compound `COc1ccc2nc(C)c(-c3ccnc(Nc4ccc(C(=O)NO)cc4)n3)n2c1` [Example 43, N-Hydroxy-4-[4-(6-methoxy-2-methyl-imidazo[1,2-a]pyridin-3-yl)-pyrimidin-2-ylamino]-benzamide], the 50% inhibitory concentration (IC50) is 0.14 µM on HDAC 1 and 0.08 µM at CDK2.
The corresponding values for `Cc1nc2cc(OCCN3CCOCC3)ccn2c1-c1ccnc(Nc2ccc(C(=O)Nc3ccccc3N)cc2)n1` [Example 29, N-(2-aminophenyl)-4-(4-(2-methyl-7-(2-morpholinoethoxy)imidazo[1,2-a]pyridin-3-yl)pyrimidin-2-ylamino)benzamide] are 0.315 µM and 2.13 µM.
The corresponding values for `Cc1nc2cc(C(=O)N3CCN(C)CC3)ccn2c1-c1ccnc(Nc2ccc(C(=O)Nc3ccccc3N)cc2)n1` [Example 27, N-(2-Amino-phenyl)-4-{4-[2-methyl-7-(4-methyl-piperazine-1-carbonyl)-imidazo[1,2-a]pyridin-3-yl]-pyrimidin-2-ylamino}-benzamide] are 0.374 µM and 4.64 µM.
The corresponding values for `COCCOc1ccn2c(-c3ccnc(Nc4ccc(C(=O)Nc5ccccc5N)cc4)n3)c(C)nc2c1` [Example 31, N-(2-Amino-phenyl)-4-{4-[7-(2-methoxy-ethoxy)-2-methyl-imidazo[1,2-a]pyridin-3-yl]-pyrimidin-2-ylamino}-benzamide] are 0.243 µM and 0.4 µM.
Consider `Cc1nc2cc(OCCN(C)C)ccn2c1-c1ccnc(Nc2ccc(C(=O)Nc3ccccc3N)cc2)n1` [Example 30, N-(2-Amino-phenyl)-4-{4-[7-(2-dimethylamino-ethoxy)-2-methyl-imidazo[1,2-a]pyridin-3-yl]-pyrimidin-2-ylamino}-benzamide], for which the figures for the IC50 on HDAC 1 and on CDK2 were 0.118 µM and 1.07 µM, respectively.
Consider `Cc1nc2ccccn2c1-c1ccnc(Nc2cccc(C(=O)Nc3ccccc3N)c2)n1` [Example 4, N-(2-Amino-phenyl)-3-[4-(2-methyl-imidazo[1,2-a]pyridin-3-yl)-pyrimidin-2-ylamino]-benzamide], for which the IC50 on HDAC 1 is > 50 µM.
Regarding `Cc1nc2ccccn2c1-c1ccnc(Nc2ncc(C(=O)Nc3ccccc3N)s2)n1` [Example 63, N-(2-aminophenyl)-2-(4-(2-methylimidazo[1,2-a]pyridin-3-yl)pyrimidin-2-ylamino)thiazole-5-carboxamide], the results for the concentration for half-maximal inhibition (IC50) on HDAC 1 and on CDK2 were 0.224 µM and 3.53 µM, respectively.
Regarding `COc1ccn2c(-c3ccnc(Nc4ccc(C(=O)NO)cn4)c3)c(C)nc2c1` [Example 77, N-hydroxy-6-(4-(7-methoxy-2-methylimidazo[1,2-a]pyridin-3-yl)pyridin-2-ylamino)nicotinamide], the IC50 at HDAC 1 turned out to be 0.18 µM.
As for `Cc1nc2ccccn2c1-c1ccnc(Nc2nnc(C(=O)NO)s2)c1` [Example 75, N-hydroxy-5-(4-(2-methylimidazo[1,2-a]pyridin-3-yl)pyridin-2-ylamino)-1,3,4-thiadiazole-2-carboxamide], on HDAC 1, the IC50 worked out at 0.669 µM.
On the same count and under the same terms, for `Cc1nc2ccccn2c1-c1ccnc(Nc2cnc(C(=O)NO)cn2)c1` [Example 76, N-hydroxy-5-(4-(2-methylimidazo[1,2-a]pyridin-3-yl)pyridin-2-ylamino)pyrazine-2-carboxamide] the value was 0.526 µM.
